Each structure is given as a SMILES string. Structures can show the parent of a compound that is named as a salt.

The test concerns HIV-1 single-round infectious reporter virus. The test can be described thus: Single-round infectious HIV-1 luciferase reporter virus infection of HeLa CD4 cells (antiviral EC50). Type of test: cell-based. The conditions noted are these: Human immunodeficiency virus 1, HeLa, read-out: EC50 Group from Table 3. How it is done:
• Virus production—Human embryonic Kidney cell line, 293T, was propagated in Dulbecco's Modified Eagle Medium (Invitrogen, Carlsbad, Calif.) containing 10% fetal Bovine serum (FBS, Sigma, St. Louis, Mo.). • Virus infection—Human epithelial cell line, HeLa, expressing the HIV-1 receptor CD4 was propagated in Dulbecco's Modified Eagle Medium (Invitrogen, Carlsbad, Calif.) containing 10% fetal Bovine serum (FBS, Sigma, St. Louis, Mo.) and supplemented with 0.2 mg/mL Geneticin (Invitrogen, Carlsbad, Calif.). Virus-Single-round infectious reporter virus was produced by co-transfecting human embryonic Kidney 293 cells with an HIV-1 envelope DNA expression vector and a proviral cDNA containing an envelope deletion mutation and the luciferase reporter gene inserted in place of HIV-1 nef sequences (Chen et al, Ref. 41). Transfections were performed using lipofectAMINE PLUS reagent as described by the manufacturer (Invitrogen, Carlsbad, Calif.). Experiment • 1. HeLa CD4 cells were plated in 96 well plates at a cell density of 1×10^4 cells per well in 100 μl Dulbecco's Modified Eagle Medium containing 10% fetal Bovine serum and incubated overnight. • 2. Compound was added in a 2 μl dimethylsulfoxide solution, so that the final assay concentration would be ≦10 μM. • 3. 100 μl of single-round infectious reporter virus in Dulbecco's Modified Eagle Medium was then added to the plated cells and compound at an approximate multiplicity of infection (MOI) of 0.01, resulting in a final volume of 200 μl per well. • 4. Virally-infected cells were incubated at 37 degrees Celsius, in a CO2 incubator, and harvested 72 h after infection. • 5. Viral infection was monitored by measuring luciferase expression from viral DNA in the infected cells using a luciferase reporter gene assay kit, as described by the manufacturer (Roche Molecular Biochemicals, Indianapolis, Ind.). Infected cell supernatants were removed and 50 μl of lysis buffer was added per well. After 15 minutes, 50 μl of freshly-reconstituted luciferase assay reagent was added per well. Luciferase activity was then quantified by measuring luminescence using a Wallac microbeta scintillation counter. • 6. The percent inhibition for each compound was calculated by quantifying the level of luciferase expression in cells infected in the presence of each compound as a percentage of that observed for cells infected in the absence of compound and subtracting such a determined value from 100. • 7. An EC50 provides a method for comparing the antiviral potency of the compounds of this disclosure. The effective concentration for fifty percent inhibition (EC50) was calculated with the Microsoft Excel Xlfit curve fitting software. For each compound, curves were generated from percent inhibition calculated at 10 different concentrations by using a four parameter logistic model (model 205). Table 3 is the key for the data in Table 4. Results
As for `CN(C)C(=O)C(=O)Nc1ncc(F)c2c(C(=O)C(=O)N3CCN(c4nnnn4-c4ccccc4)CC3)c[nH]c12` [B-20, N^1-(4-fluoro-3-(2-oxo-2-(4-(1-phenyl-1H-tetrazol-5-yl)piperazin-1-yl)acetyl)-1H-pyrrolo[2,3-c]pyridin-7-yl)-N^2,N^2-dimethyloxalamide], the concentration for a half-maximal effect (EC50) is less than 0.5 µM. As to `COc1cnc(-c2cc(C(=O)O)[nH]n2)c2[nH]cc(C(=O)C(=O)N3CCN(c4nnnn4-c4ccccc4)CC3)c12` [B-21, 3-(4-methoxy-3-(2-oxo-2-(4-(1-phenyl-1H-tetrazol-5-yl)piperazin-1-yl)acetyl)-1H-pyrrolo[2,3-c]pyridin-7-yl)-1H-pyrazole-5-carboxylic acid], the concentration giving a half-maximal response (EC50) is less than 0.5 µM. With `COc1cnc(-c2cc(CO)[nH]n2)c2[nH]cc(C(=O)C(=O)N3CCN(c4nnnn4-c4ccccc4)CC3)c12` [B-22, 1-(7-(5-(hydroxymethyl)-1H-pyrazol-3-yl)-4-methoxy-1H-pyrrolo[2,3-c]pyridin-3-yl)-2-(4-(1-phenyl-1H-tetrazol-5-yl)piperazin-1-yl)ethane-1,2-dione], the EC50 is less than 0.5 µM. Turning to `CN(C)CCNc1ccn(-c2ncc(F)c3c(C(=O)C(=O)N4CCN(c5nnnn5-c5ccccc5)CC4)c[nH]c23)n1` [B-23, 1-(7-(3-(2-(dimethylamino)ethylamino)-1H-pyrazol-1-yl)-4-fluoro-1H-pyrrolo[2,3-c]pyridin-3-yl)-2-(4-(1-phenyl-1H-tetrazol-5-yl)piperazin-1-yl)ethane-1,2-dione TFA], the concentration giving a half-maximal response (EC50) was less than 0.5 µM. With `COc1cnc(-c2cc(CNCCO)[nH]n2)c2[nH]cc(C(=O)C(=O)N3CCN(c4nnnn4-c4ccccc4)CC3)c12` [B-24, 1-(7-(5-((2-hydroxyethylamino)methyl)-1H-pyrazol-3-yl)-4-methoxy-1H-pyrrolo[2,3-c]pyridin-3-yl)-2-(4-(1-phenyl-1H-tetrazol-5-yl)piperazin-1-yl)ethane-1,2-dione TFA], the EC50 is less than 0.5 µM. With `COc1cnc(-c2cc(CNCCN(C)C)[nH]n2)c2[nH]cc(C(=O)C(=O)N3CCN(c4nnnn4-c4ccccc4)CC3)c12` [B-25, 1-(7-(5-((2-(dimethylamino)ethylamino)methyl)-1H-pyrazol-3-yl)-4-methoxy-1H-pyrrolo[2,3-c]pyridin-3-yl)-2-(4-(1-phenyl-1H-tetrazol-5-yl)piperazin-1-yl)ethane-1,2-dione TFA], the 50% effective concentration (EC50) is less than 0.5 µM. On to `COc1cnc(-c2cc(CN(C)CCN(C)C)[nH]n2)c2[nH]cc(C(=O)C(=O)N3CCN(c4nnnn4-c4ccccc4)CC3)c12` [B-26, 1-(7-(5-(((2-(dimethylamino)ethyl)(methyl)amino)methyl)-1H-pyrazol-3-yl)-4-methoxy-1H-pyrrolo[2,3-c]pyridin-3-yl)-2-(4-(1-phenyl-1H-tetrazol-5-yl)piperazin-1-yl)ethane-1,2-dione TFA], for which the half-maximal effective concentration (EC50) is less than 0.5 µM.

For `COc1cnc(-c2cc(CNCCc3ccncc3)[nH]n2)c2[nH]cc(C(=O)C(=O)N3CCN(c4nnnn4-c4ccccc4)CC3)c12` [B-27, 1-(4-methoxy-7-(5-((2-(pyridin-4-yl)ethylamino)methyl)-1H-pyrazol-3-yl)-1H-pyrrolo[2,3-c]pyridin-3-yl)-2-(4-(1-phenyl-1H-tetrazol-5-yl)piperazin-1-yl)ethane-1,2-dione TFA], the half-maximal effective concentration (EC50) was less than 0.5 µM.

For `O=C(C(=O)N1CCN(c2nnnn2-c2ccccc2)CC1)c1c[nH]c2c(-c3cc[nH]n3)ncc(F)c12` [B-28], the EC50 was less than 0.5 µM. For the molecule `Cn1ccc(-c2ncc(F)c3c(C(=O)C(=O)N4CCN(c5nnnn5-c5ccccc5)CC4)c[nH]c23)n1` [B-29], the EC50 was less than 0.5 µM.

On to `CN(C)CCn1ccc(-c2ncc(F)c3c(C(=O)C(=O)N4CCN(c5nnnn5-c5ccccc5)CC4)c[nH]c23)n1` [B-30], for which the EC50 is less than 0.5 µM.

Turning to `O=C(C(=O)N1CCN(c2nnnn2-c2ccccc2)CC1)c1c[nH]c2c(-c3ccn(CCN4CCOCC4)n3)ncc(F)c12` [B-31], the EC50 was less than 0.5 µM.

As for `COc1cc[n+]([O-])c2[nH]cc(C(=O)C(=O)N3CCN(c4nnnn4-c4ccccc4)CC3)c12` [B-32], the concentration giving a half-maximal response (EC50) was more than 0.5 µM.

For `CCOC(=O)c1cc(-c2ncc(F)c3c(C(=O)C(=O)N4CCN(c5nnnn5-c5ccccc5)CC4)c[nH]c23)n[nH]1` [B-33], the concentration for a half-maximal effect (EC50) was less than 0.5 µM. As for `O=C(O)c1cc(-c2ncc(F)c3c(C(=O)C(=O)N4CCN(c5nnnn5-c5ccccc5)CC4)c[nH]c23)n[nH]1` [B-34], the EC50 was less than 0.5 µM. The result for `CN(C)CCN(C)C(=O)c1cc(-c2ncc(F)c3c(C(=O)C(=O)N4CCN(c5nnnn5-c5ccccc5)CC4)c[nH]c23)n[nH]1` [B-35] reads less than 0.5 µM; that for `CN(CCO)C(=O)c1cc(-c2ncc(F)c3c(C(=O)C(=O)N4CCN(c5nnnn5-c5ccccc5)CC4)c[nH]c23)n[nH]1` [B-36], less than 0.5 µM. The result for `O=C(NCCO)c1cc(-c2ncc(F)c3c(C(=O)C(=O)N4CCN(c5nnnn5-c5ccccc5)CC4)c[nH]c23)n[nH]1` [B-37] reads less than 0.5 µM. In the case of `CN(C)CCCN(C)C(=O)c1cc(-c2ncc(F)c3c(C(=O)C(=O)N4CCN(c5nnnn5-c5ccccc5)CC4)c[nH]c23)n[nH]1` [B-38], the 50% effective concentration (EC50) was less than 0.5 µM. On to `CN1CCN(CCCNC(=O)c2cc(-c3ncc(F)c4c(C(=O)C(=O)N5CCN(c6nnnn6-c6ccccc6)CC5)c[nH]c34)n[nH]2)CC1` [B-39], for which the EC50 was less than 0.5 µM. Turning to `O=C(NCCN1CCCC1)c1cc(-c2ncc(F)c3c(C(=O)C(=O)N4CCN(c5nnnn5-c5ccccc5)CC4)c[nH]c23)n[nH]1` [B-40], the EC50 was less than 0.5 µM. In the case of `O=C(NCCc1ccncc1)c1cc(-c2ncc(F)c3c(C(=O)C(=O)N4CCN(c5nnnn5-c5ccccc5)CC4)c[nH]c23)n[nH]1` [B-41], the EC50 was less than 0.5 µM. With `O=C(NCCN1CCOCC1)c1cc(-c2ncc(F)c3c(C(=O)C(=O)N4CCN(c5nnnn5-c5ccccc5)CC4)c[nH]c23)n[nH]1` [B-42], the EC50 is less than 0.5 µM.

Take `CCOC(=O)c1cc(-c2ncc(F)c3c(C(=O)C(=O)N4CCN(c5nnnn5-c5ccccc5)CC4)c[nH]c23)nn1C` [B-43]: the EC50 is less than 0.5 µM. `Cn1nc(-c2ncc(F)c3c(C(=O)C(=O)N4CCN(c5nnnn5-c5ccccc5)CC4)c[nH]c23)cc1C(=O)NCCO` [B-44]: the 50% effective concentration (EC50) is less than 0.5 µM.

With `CN(C)CCCNC(=O)c1cc(-c2ncc(F)c3c(C(=O)C(=O)N4CCN(c5nnnn5-c5ccccc5)CC4)c[nH]c23)nn1C` [B-45], the EC50 is less than 0.5 µM.

Take `N#Cc1ncc(F)c2c(C(=O)C(=O)N3CCN(c4nnnn4-c4ccccc4)CC3)c[nH]c12` [B-46]: the EC50 is more than 0.5 µM. As to `CC(=O)c1ncc(F)c2c(C(=O)C(=O)N3CCN(c4nnnn4-c4ccccc4)CC3)c[nH]c12` [B-47], the EC50 is less than 0.5 µM. As to `CO/N=C(\C)c1ncc(F)c2c(C(=O)C(=O)N3CCN(c4nnnn4-c4ccccc4)CC3)c[nH]c12` [B-48], the 50% effective concentration (EC50) was less than 0.5 µM. Regarding `C/C(=N\O)c1ncc(F)c2c(C(=O)C(=O)N3CCN(c4nnnn4-c4ccccc4)CC3)c[nH]c12` [B-49], the half-maximal effective concentration (EC50) is less than 0.5 µM. `NC(=O)c1ncc(F)c2c(C(=O)C(=O)N3CCN(c4nnnn4-c4ccccc4)CC3)c[nH]c12` [B-50]: the EC50 is less than 0.5 µM.

`CCOC(=O)c1cc(-c2ncc(F)c3c(C(=O)C(=O)N4CCN(c5c[nH]nc5-c5ccccc5)CC4)c[nH]c23)n[nH]1` [B-51]: the EC50 is less than 0.5 µM. With `O=C(NCCO)c1cc(-c2ncc(F)c3c(C(=O)C(=O)N4CCN(c5c[nH]nc5-c5ccccc5)CC4)c[nH]c23)n[nH]1` [B-52], the concentration for a half-maximal effect (EC50) was less than 0.5 µM.

Source of the values: patent US7807676B2, “Diketo-Piperazine and Piperidine derivatives as antiviral agents” (priority 2006, dated 2010).
